# Measurements published in patent publication US8969415B2, “Intraocular drug delivery systems” (Allergan, Inc., priority 2006, dated 2015).
# Structures can show the parent of a compound that is named as a salt.
# Legend:
# [1] = in vivo
# [2] = system: specific receptor target of brimonidine located in retina and iris-ciliary body
smiles,measurement,setting,value
"Brc1c(NC2=NCCN2)ccc2nccnc12 [brimonidine, 5-bromo-6-(2-imidazolidinylideneamino)quinoxaline tartrate]",vitreal clearance,[1],0.487 mL/day
same,brimonidine concentration required for optic neuroprotection,[2],≥ 2 nM
